Measurements taken from PubChem BioAssay (NCI).
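These data come from cells grown in 96-well plates and exposed to compound for 48 hours at five concentrations. The concentration for full growth arrest is given as TGI.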

Assays:
Test in all cases: inhibition of tumour cell growth, NCI panel, 48 h
786-0 renal = test system: 786-0 renal
A549 NSCLC = test system: A549 NSCLC
BT-549 breast = test system: BT-549 breast
COLO 205 colon = test system: COLO 205 colon
HCT-116 colon = test system: HCT-116 colon
HOP-62 NSCLC = test system: HOP-62 NSCLC
HOP-92 NSCLC = test system: HOP-92 NSCLC
IGROV1 ovarian = test system: IGROV1 ovarian
LOX IMVI melanoma = test system: LOX IMVI melanoma
MCF7 breast = test system: MCF7 breast
NCI-H226 lung = test system: NCI-H226 lung
NCI-H23 lung = test system: NCI-H23 lung
SF-295 CNS = test system: SF-295 CNS
SK-MEL-28 melanoma = test system: SK-MEL-28 melanoma
SK-OV-3 ovarian = test system: SK-OV-3 ovarian
SW-620 colon = test system: SW-620 colon
TK-10 renal = test system: TK-10 renal
UACC-257 melanoma = test system: UACC-257 melanoma
UACC-62 melanoma = test system: UACC-62 melanoma
DU-145 prostate = test system: DU-145 prostate

Compound	TGI (786-0 renal) [µM]	TGI (A549 NSCLC) [µM]	TGI (BT-549 breast) [µM]	TGI (COLO 205 colon) [µM]	TGI (HCT-116 colon) [µM]	TGI (HOP-62 NSCLC) [µM]	TGI (HOP-92 NSCLC) [µM]	TGI (IGROV1 ovarian) [µM]	TGI (LOX IMVI melanoma) [µM]	TGI (MCF7 breast) [µM]	TGI (NCI-H226 lung) [µM]	TGI (NCI-H23 lung) [µM]	TGI (SF-295 CNS) [µM]	TGI (SK-MEL-28 melanoma) [µM]	TGI (SK-OV-3 ovarian) [µM]	TGI (SW-620 colon) [µM]	TGI (TK-10 renal) [µM]	TGI (UACC-257 melanoma) [µM]	TGI (UACC-62 melanoma) [µM]	TGI (DU-145 prostate) [µM]
Cc1ccc(/C=N/Nc2cc(C)c3ccccc3n2)s1	> 100	40.6	42	> 100	> 100	30.8	93.8	24.9	78.9	39.6	52.7	96.3	32	> 100	43.2	> 100	> 100	50.7	> 100	–
CC(OC1CC(=O)CC2C(=O)C=CC(=O)C12)c1ccccc1 (stereo not given)	26.9	40.2	–	32	22.4	> 58.8	2.97	31.4	33.3	–	36.5	33.6	33	36.4	> 56.2	27.3	31.6	35.4	29.7	–
CC(NC1=NCCO1)c1cccs1 (stereo not given)	36.6	> 100	–	35.9	38.6	66.5	47	61.6	–	55.9	> 100	> 100	31	53.9	> 100	> 100	> 100	37.9	37.3	> 100
O=[N+]([O-])c1cc2c(cc1O)[nH]c1cccc([N+](=O)[O-])c12	> 100	> 100	–	> 100	> 100	> 100	–	–	> 100	–	> 100	> 100	> 100	> 100	–	> 100	> 100	> 100	–	–
COc1cc(C(C#N)NNC(=O)Cc2ccccc2)cc(OC)c1OC (stereo not given)	> 100	> 100	–	> 100	> 100	> 100	> 100	> 100	> 100	–	> 100	> 100	> 100	> 100	> 100	> 100	> 100	> 100	> 100	–
CC(=O)/C=C(/C=N/O)c1ccccc1	> 100	> 100	> 100	> 100	> 100	> 100	–	> 100	> 100	> 100	> 100	> 100	> 100	> 100	> 100	> 100	> 100	> 100	> 100	–
CN(C)Cc1cc(C(=O)/C=C/c2ccc(Br)cc2)cc(CN(C)C)c1O	19	26.2	–	3.28	19.9	17.2	–	26.3	5.43	–	35.9	33	19	25.3	–	16	27.4	19.5	–	25.1
Cc1cc(Cl)ccc1NC(=O)C(=O)Cc1ccc([N+](=O)[O-])c([N+](=O)[O-])c1CC(=O)C(=O)Nc1ccc(Cl)cc1C	> 100	> 100	–	> 100	> 100	> 100	> 100	> 100	> 100	–	> 100	> 100	> 100	> 100	> 100	> 100	> 100	> 100	> 100	–
CC(C)c1cccc(C(C)C)c1NC(=O)C(=O)CC(=O)CC(c1ccccc1)c1c(O)c2ccccc2oc1=O (stereo not given)	> 100	> 100	–	> 100	> 100	> 100	> 100	> 100	–	–	–	> 100	> 100	> 100	> 100	> 100	> 100	> 100	> 100	–
Nc1ccc(C(=O)NN2C(=O)C(Cl)C2c2cc(Br)cc(Br)c2O)cc1 (stereo not given)	> 100	91.1	–	> 100	> 100	> 100	> 100	> 100	33.8	–	45.8	58	> 100	> 100	> 100	> 100	> 100	85.9	24.8	–
NC(N)=NCc1ccc2c(c1)OCO2	> 100	> 100	–	–	> 100	> 100	> 100	> 100	> 100	–	–	> 100	> 100	> 100	> 100	> 100	> 100	–	> 100	> 100
Fc1ccc2c(c1)SC1Oc3ccccc3-c3c1c-2nn3-c1ccccc1 (stereo not given)	> 100	> 100	–	> 100	> 100	> 100	> 100	> 100	> 100	–	–	> 100	> 100	> 100	> 100	> 100	> 100	> 100	–	–
COc1cc2c(cc1O)[C@H](C)C(c1ccccc1OC)O2 (stereo not given in full)	50.5	> 100	–	27	15.4	–	62.8	> 100	26.7	–	72.3	> 100	22.9	> 100	> 100	12.2	> 100	> 100	> 100	–
Cc1ccc(/C=C/C(=O)C(C)C)cc1	> 100	> 100	–	> 100	–	–	> 100	> 100	–	–	–	> 100	> 100	> 100	> 100	> 100	> 100	> 100	> 100	–
